The values below come from US6208893A, “Electroporation apparatus with connective electrode template” (Genetronics, Inc., priority 1999, dated 2001).

Where two headings read alike, the source gives them in different places.

The subject of data set [1] is PC-3 cells. Kind of data set: XTT cell proliferation assay, cytotoxicity on PC-3 cells with and without electroporation. The note with it: for cell susceptibility with electroporation / cytotoxic enhancement, rank order: combined with electroporation; for cytotoxicity enhancement ratio: IC50 no electroporation vs with electroporation. Here is the method: PC-3 cells (ATCC CRL-1435, a prostate cancer cell line) were grown in RPMI-1640 supplemented with 15% fetal calf serum (FCS) and 1% L-glutamine in 5% CO2 at 37° C. Cells in the exponential phase of growth were harvested by trypsinization and their viability was determined by trypan blue exclusion. Cell were suspended in culture medium at 2×10^5 cells/ml and seeded in the wells of a 96-well plate at a final concentration of 4×10^4 cells per well. Cells were pulsed using appropriate needle array electrodes connected to a square wave pulse generator. The needle array was inserted in the well of the 96 well microplate and pulsed using the following parameters:
A cell survival curve was produced for the different electric fields.
Methods, 142:2, 257-265, 1991). The XTT assay is based on a spectrophotometric assay of the metabolic conversion of tetrazolium salts to formazan; living cells convert XTT to formazan, which can be measured spectrophotometrically. Results were expresses as a comparison of the lC50 (concentration of drug inhibiting 50% of the cells) of each agent in the presence and absence of clectroporation, and are presented in Table 1.

Data set [2] concerns PC-3 cells. Nature of the data set: PC-3 tumors in nude mice, intratumoral bleomycin with or without electroporation. The format is in vivo, nude mice; human prostate tumor (PC-3) cells. As to conditions: for death: deaths due to infighting. On the procedure: In order to examine the effect of electroporation on the effectiveness of chemotherapeutic agents in vivo, a nude mouse model was utilized. For these experiments, 0.1 ml of a matrigel solution (a serum-free solution consisting of one part matrigel diluted in four parts RPMI-1640) containing 5×10^6 PC-3 cells was implanted on the flank of nude mice. The tumors were allowed to grow until a tumor volume of […]. The mice were weighed and randomly divided into six groups as follows:
Group 1: no chemotherapeutic agent, no electroporation
Group 2: 0.5 unit Bleomycin, no electroporation
Group 3: 0.5 units Bleomycin, 4 needle array, 0.65 cm, 942V, 4×100 μs pulses
Group 4: 0.5 units Bleomycin, 6 needle array, 1.00 cm, 1130 V, 6×100 μs pulses
Group 5: 0.5 units Bleomycin, 6 needle array, 0.50 cm, 559 V, 6×100 μs pulses
Group 6: 0.5 units Bleomycin, 4 needle array, 0.87 cm, 1500V, 4×100 μs pulses
In those animals which received Bleomycin, the chemotherapeutic agent (0.5 unit) was dissolved in 0.01 ml saline and injected intratumorally by "fanning." After 10±1 minutes, a Genetronics Medpulser™ device was used to pulse the tumors with a set of either 6 or 4-needle array electrodes. All treatments were given as a single set of pulses.
The animals were monitored daily for morality or any sign of disease for 67 days (see FIG. 24, where D=drug treatment (Bleomycin) and e=electroporation). Tumor size was measured and tumor volume calculated using the formula: […]
wherein a, b, and c are the length, width, and depth of the tumor in mm.
Following the monitoring period, the tumors were harvested and sections were prepared for histological analyses. Animals were classified as having progressive disease (appearance of new lesions not previously identified or having an estimated increase of 25% or more in existent lesion size), a complete response (complete disappearance of all known disease, a partial response (wherein the tumor size decrease 50% or more). Deaths were noted to be due to infighting of mice in the same cage.

A further data set concerns prostate. Nature of the data set: Intraprostatic injection of Bleomycin with electroporation, tolerability, ECG and histology in dog. The class given is in vivo, male beagle dog. On the procedure:
In order to evaluate the technical feasibility of intraprostatic injection of Bleomycin, the following study was performed. A male beagle dog with a prostate size of >2 cm in diameter was anesthetized, A midline laparotomy was performed, and the bladder and gut reflected to visualize the prostate gland. Under direct visual guidance, Bleomycin was injected into each of six sextants (base, mid, and apex of both the left and right sides) of the prostate. Four electroporation needles were then inserted transperineally under visual guidance to administer the electroporation cycles. […] The ECG was recorded during each of the electroporation pulse sequences. The first two sequences were conducted with the needles inserted into the prostate, through the perineum. Four additional sequences were recorded with the needles inserted directly into the muscles of the left hindlimb. Each of the pulse sequences produced stimulation artifacts on the recording of the ECG.
The prostate was then excised and processed for histological evaluation.

For data set [3] the following is noted: partition coefficient between octanol and water; cited from earlier work.
Another data set deals with tumor cell. The note with it: cited from earlier work.
Setting [4] is: during electroporation pulse sequences.

Consider `N.N.[Cl][Pt][Cl]` [Cisplatin], for which the “cell susceptibility with electroporation” value in the data set with PC-3 cells [1] is reported as “electroporation enhances cell susceptibility”. For the same molecule, the IC50 in the data set with PC-3 cells [1] (read-out: IC50 no electroporation, no electroporation, 20 hours after treatment) was determined as 50 µM; in the data set with PC-3 cells [1] (read-out: IC50 with electroporation, with electroporation, 6 pulses, 99 μs, 400-600 V, 0.5 cm needle array, 20 hours after treatment), 10 µM.
For Bleomycin, the cytotoxicity enhancement ratio with PC-3 cells [1] came to 1000. In the data set with PC-3 cells [1], the “cell susceptibility with electroporation” value is given as “electroporation enhances cell susceptibility”. Also, the “cytotoxic enhancement, rank order” value in the data set on PC-3 cells [1] was “highest cytotoxic enhancement”. The Progressive disease in the data set on PC-3 cells [2] (Group 2: 0.5 unit Bleomycin, no electroporation, 6 animals, 67 days) was 100%. The partial response stood at 14% with PC-3 cells [2] (Group 3: 0.5 units Bleomycin, 4 needle array, 0.65 cm, 942V, 4×100 μs pulses, 1 of 7 animals, 67 days); 14% with PC-3 cells [2] (Group 4: 0.5 units Bleomycin, 6 needle array, 1.00 cm, 1130 V, 6×100 μs pulses, 1 of 7 animals, 67 days); 17% in the data set with PC-3 cells [2] (Group 5: 0.5 units Bleomycin, 6 needle array, 0.50 cm, 559 V, 6×100 μs pulses, 1 of 6 animals, 67 days); 12% in the data set on PC-3 cells [2] (Group 6: 0.5 units Bleomycin, 4 needle array, 0.87 cm, 1500V, 4×100 μs pulses, 1 of 8 animals, 67 days). For the same molecule, the death in the data set on PC-3 cells [2] (Group 3: 0.5 units Bleomycin, 4 needle array, 0.65 cm, 942V, 4×100 μs pulses, 1 of 7 animals) is 14%; in the data set with PC-3 cells [2] (Group 4: 0.5 units Bleomycin, 6 needle array, 1.00 cm, 1130 V, 6×100 μs pulses, 1 of 7 animals), 14%; in the data set with PC-3 cells [2] (Group 6: 0.5 units Bleomycin, 4 needle array, 0.87 cm, 1500V, 4×100 μs pulses, 2 of 8 animals), 25%. Further, the complete response is 52% with PC-3 cells [2] (Group 3: 0.5 units Bleomycin, 4 needle array, 0.65 cm, 942V, 4×100 μs pulses, 5 of 7 animals, 67 days); 52% in the data set with PC-3 cells [2] (Group 4: 0.5 units Bleomycin, 6 needle array, 1.00 cm, 1130 V, 6×100 μs pulses, 5 of 7 animals, 67 days); 83% with PC-3 cells [2] (Group 5: 0.5 units Bleomycin, 6 needle array, 0.50 cm, 559 V, 6×100 μs pulses, 5 of 6 animals, 67 days); 63% with PC-3 cells [2] (Group 6: 0.5 units Bleomycin, 4 needle array, 0.87 cm, 1500V, 4×100 μs pulses, 5 of 8 animals, 67 days). In addition, the “ECG, electrical rhythm of the heart” value in the data set with prostate (setting [4]) is recorded as “no effect on the electrical rhythm of the heart”. Further, in the data set with prostate (setting [4]), the “clinical disturbances of the cardiac rhythm” value is given as “no clinical disturbances of the cardiac rhythm were observed”. Also, in the data set with prostate (during the electroporation pulses), the muscular contractions entry is given as “muscular contractions were observed”. Moreover, the “acute local or adverse reactions” value with prostate (intraprostatic Bleomycin plus electroporation) is “No acute local or adverse reactions”. Further, in the data set on prostate (intraprostatic Bleomycin plus electroporation, persisted for the duration of the study), the injection site finding entry was “Small hematomas were evident at the injection site”. Besides, the “gross examination of prostate, perineum and surrounding tissues” value in the data set on prostate (one hour after electroporation) is listed as “no findings except for the hematomas on the prostate surface”. Further, the “necrosis of epithelial cells in the glandular portion of the prostate” value in the data set with prostate (one hour after electroporation) is recorded as “Necrosis occurred in the epithelial cells”. Besides, the “necrosis of the supporting stroma” value in the data set on prostate (one hour after electroporation) is “No necro-sis of the supporting stroma was observed”. Moreover, the “histological tissue findings in the prostate gland” value in the data set with prostate (one hour after electroporation, multifocal in distribution pattern) is “hemorrhage, edema, and necrosis, which were mild in severity”. Further, the “log P” value in data set [3] is reported as “very negative”. In addition, the “diffusion into a tumor cell” value in the data set with tumor cell is “diffuse very slowly into a tumor cell”. Besides, the “penetration of the membranes of certain cancer cells” value in the data set with tumor cell (without electroporation) is given as “normally cannot penetrate the membranes of certain cancer cells effectively”.
On to `CO[C@@]12[C@H](COC(N)=O)C3=C(C(=O)C(C)=C(N)C3=O)N1C[C@@H]1N[C@@H]12` [Mitomycin C], for which, in the data set on PC-3 cells [1] (Homo sapiens, PC-3, 20 h, read-out: IC50 no electroporation), the IC50 turned out to be 80 µM. Moreover, in the data set on PC-3 cells [1] (Homo sapiens, PC-3, 20 h, read-out: IC50 with electroporation), the IC50 came to 60 µM. Further, in the data set with PC-3 cells [1], the cytotoxicity enhancement ratio is recorded as 1.33; the “cytotoxic enhancement, rank order” value was “followed by Cisplatin and Mitomycin C”.
